In patent publication US10413535B2, “Pharmaceutical compositions comprising an integrin ALPHA4 antagonist for use in treating ocular inflammatory conditions” (AXEROVISION, INC., priority 2015, dated 2019):
Read-outs that look alike come from different tables or passages of the source.

Assay: Toxicokinetics in 13-week topical ocular dog study
Conditions: beagle, in vivo, topical or ocular
Description: GW559090A was given to Beagle Dogs by topical ocular administration for 13 weeks. Animals were dosed six or twelve times per day, with one hour between doses. Treatment groups were: (1) vehicle (12 times a day), (2) 30 mg/mL/occasion given six times a day, (3) 50 mg/mL/occasion given six times a day, or (4) 50 mg/mL/occasion, given 12 times a day.
GW559090A was formulated as a stock solution in 25 mM phosphate buffer with 0.5% sodium chloride to provide a 50 mg/mL stock solution, which was used for administration to Groups 3 or 4, or further diluted with 25 mM phosphate buffer with 0.75% sodium chloride to provide a 30 mg/mL solution for administration to Group 2.
During the 13 week treatment period dogs received daily topical ocular doses of GW559090 or vehicle (12 times a day) at a constant dose volume of 0.06 mL (given 6 or 12 times a day, with one hour between doses). The test article formulation or vehicle was carefully dropped into the everted lower eyelid of the left eye from a suitable distance, to prevent contact of the positive displacement pipette with the eye. The lower and upper lids were then gently held together for approximately five seconds, to prevent loss of dose and aid even distribution across the external ocular surface. The un-dosed eye was not manipulated at any time and served as a within animal untreated control site.

**Q.** With Cc1ccccc1OCC(=O)N[C@@H](CC(C)C)C(=O)N[C@@H](Cc1ccc(OC(=O)N2CCC(C(N)=O)CC2)cc1)C(=O)O [GW559090, (2S)-3-[4-({[4-(Aminocarbonyl)-1-piperidinyl]carbonyl}oxy)phenyl]-2-[((2S)-4-methyl-2-{[2-(2-methylphenoxy)acetyl]amino}pentanoyl)amino]propanoic acid] as the compound, how does the AUC(0-t) (female, 50 mg/mL/occasion, female dogs, 50 mg/mL, 12 daily doses, Week 13, read-out: AUC0-1) read?
**A.** Its AUC(0-t) is 12.1 ng·h/mL.

**Q.** What about the AUC(0-t) (female, 50 mg/mL/occasion, female dogs, 50 mg/mL, 12 daily doses, Week 13, read-out: AUC0-24) of the same compound?
**A.** Its AUC(0-t) is 146 ng·h/mL.

**Q.** And the Cmax (female, 50 mg/mL/occasion, female dogs, 50 mg/mL, 12 daily doses, Week 13, read-out: Cmax)?
**A.** The Cmax was 30.5 ng/mL.

**Q.** And the AUC(0-t) (male, 30 mg/mL/occasion, male dogs, 30 mg/mL, 6 daily doses, Day 1, read-out: AUC0-1)?
**A.** Its AUC(0-t) is 3.82 ng·h/mL.

**Q.** What about the AUC(0-t) (male, 30 mg/mL/occasion, male dogs, 30 mg/mL, 6 daily doses, Day 1, read-out: AUC0-24) of the same compound?
**A.** Its AUC(0-t) is 22.9 ng·h/mL.

**Q.** And the Cmax (male, 30 mg/mL/occasion, male dogs, 30 mg/mL, 6 daily doses, Day 1, read-out: Cmax)?
**A.** The Cmax was 7.41 ng/mL.

**Q.** And the Tmax (male, 30 mg/mL/occasion, male dogs, 30 mg/mL, 6 daily doses, Week 4)?
**A.** The Tmax was 15 min.

**Q.** What about the AUC(0-t) (male, 30 mg/mL/occasion, male dogs, 30 mg/mL, 6 daily doses, Week 4, read-out: AUC0-1) of the same compound?
**A.** Its AUC(0-t) is 2.27 ng·h/mL.

**Q.** What about the AUC(0-t) (male, 30 mg/mL/occasion, male dogs, 30 mg/mL, 6 daily doses, Week 4, read-out: AUC0-24) of the same compound?
**A.** The AUC(0-t) was 13.6 ng·h/mL.

**Q.** What about the Cmax (male, 30 mg/mL/occasion, male dogs, 30 mg/mL, 6 daily doses, Week 4, read-out: Cmax) of the same compound?
**A.** Its Cmax is 5.3 ng/mL.

**Q.** And the Tmax (male, 30 mg/mL/occasion, male dogs, 30 mg/mL, 6 daily doses, Week 13)?
**A.** Its Tmax is 30 min.

**Q.** What about the AUC(0-t) (male, 30 mg/mL/occasion, male dogs, 30 mg/mL, 6 daily doses, Week 13, read-out: AUC0-1) of the same compound?
**A.** The AUC(0-t) was 3.81 ng·h/mL.

**Q.** What about the AUC(0-t) (male, 30 mg/mL/occasion, male dogs, 30 mg/mL, 6 daily doses, Week 13, read-out: AUC0-24) of the same compound?
**A.** Its AUC(0-t) is 22.9 ng·h/mL.

**Q.** And the Cmax (male, 30 mg/mL/occasion, male dogs, 30 mg/mL, 6 daily doses, Week 13, read-out: Cmax)?
**A.** Its Cmax is 7.03 ng/mL.

**Q.** And the Tmax (male, 50 mg/mL/occasion, male dogs, 50 mg/mL, 6 daily doses, Day 1)?
**A.** Its Tmax is 4.98 min.

**Q.** And the AUC(0-t) (male, 50 mg/mL/occasion, male dogs, 50 mg/mL, 6 daily doses, Day 1, read-out: AUC0-1)?
**A.** Its AUC(0-t) is 18.4 ng·h/mL.

**Q.** And the AUC(0-t) (male, 50 mg/mL/occasion, male dogs, 50 mg/mL, 6 daily doses, Day 1, read-out: AUC0-24)?
**A.** Its AUC(0-t) is 110 ng·h/mL.

**Q.** And the Cmax (male, 50 mg/mL/occasion, male dogs, 50 mg/mL, 6 daily doses, Day 1, read-out: Cmax)?
**A.** Its Cmax is 52.8 ng/mL.

**Q.** What about the Tmax (male, 50 mg/mL/occasion, male dogs, 50 mg/mL, 6 daily doses, Week 4) of the same compound?
**A.** The Tmax was 10 min.

**Q.** And the AUC(0-t) (male, 50 mg/mL/occasion, male dogs, 50 mg/mL, 6 daily doses, Week 4, read-out: AUC0-1)?
**A.** Its AUC(0-t) is 8.74 ng·h/mL.

**Q.** And the AUC(0-t) (male, 50 mg/mL/occasion, male dogs, 50 mg/mL, 6 daily doses, Week 4, read-out: AUC0-24)?
**A.** The AUC(0-t) was 52.4 ng·h/mL.

**Q.** And the Cmax (male, 50 mg/mL/occasion, male dogs, 50 mg/mL, 6 daily doses, Week 4, read-out: Cmax)?
**A.** The Cmax was 24.2 ng/mL.

**Q.** And the Tmax (male, 50 mg/mL/occasion, male dogs, 50 mg/mL, 6 daily doses, Week 13)?
**A.** Its Tmax is 15 min.

**Q.** And the AUC(0-t) (male, 50 mg/mL/occasion, male dogs, 50 mg/mL, 6 daily doses, Week 13, read-out: AUC0-1)?
**A.** Its AUC(0-t) is 6.36 ng·h/mL.

**Q.** What about the AUC(0-t) (male, 50 mg/mL/occasion, male dogs, 50 mg/mL, 6 daily doses, Week 13, read-out: AUC0-24) of the same compound?
**A.** Its AUC(0-t) is 38.2 ng·h/mL.

**Q.** What about the Cmax (male, 50 mg/mL/occasion, male dogs, 50 mg/mL, 6 daily doses, Week 13, read-out: Cmax) of the same compound?
**A.** Its Cmax is 13.2 ng/mL.

**Q.** What about the Tmax (male, 50 mg/mL/occasion, male dogs, 50 mg/mL, 12 daily doses, Day 1) of the same compound?
**A.** Its Tmax is 22.5 min.

**Q.** What about the AUC(0-t) (male, 50 mg/mL/occasion, male dogs, 50 mg/mL, 12 daily doses, Day 1, read-out: AUC0-1) of the same compound?
**A.** The AUC(0-t) was 36.6 ng·h/mL.

**Q.** And the AUC(0-t) (male, 50 mg/mL/occasion, male dogs, 50 mg/mL, 12 daily doses, Day 1, read-out: AUC0-24)?
**A.** The AUC(0-t) was 439 ng·h/mL.

**Q.** What about the Cmax (male, 50 mg/mL/occasion, male dogs, 50 mg/mL, 12 daily doses, Day 1, read-out: Cmax) of the same compound?
**A.** The Cmax was 69.7 ng/mL.

**Q.** What about the Tmax (male, 50 mg/mL/occasion, male dogs, 50 mg/mL, 12 daily doses, Week 4) of the same compound?
**A.** Its Tmax is 15 min.

**Q.** What about the AUC(0-t) (male, 50 mg/mL/occasion, male dogs, 50 mg/mL, 12 daily doses, Week 4, read-out: AUC0-1) of the same compound?
**A.** The AUC(0-t) was 11.8 ng·h/mL.

**Q.** And the AUC(0-t) (male, 50 mg/mL/occasion, male dogs, 50 mg/mL, 12 daily doses, Week 4, read-out: AUC0-24)?
**A.** Its AUC(0-t) is 142 ng·h/mL.

**Q.** And the Cmax (male, 50 mg/mL/occasion, male dogs, 50 mg/mL, 12 daily doses, Week 4, read-out: Cmax)?
**A.** The Cmax was 23.8 ng/mL.

**Q.** What about the Tmax (male, 50 mg/mL/occasion, male dogs, 50 mg/mL, 12 daily doses, Week 13) of the same compound?
**A.** The Tmax was 15 min.

**Q.** What about the AUC(0-t) (male, 50 mg/mL/occasion, male dogs, 50 mg/mL, 12 daily doses, Week 13, read-out: AUC0-1) of the same compound?
**A.** The AUC(0-t) was 10.2 ng·h/mL.

**Q.** And the AUC(0-t) (male, 50 mg/mL/occasion, male dogs, 50 mg/mL, 12 daily doses, Week 13, read-out: AUC0-24)?
**A.** Its AUC(0-t) is 122 ng·h/mL.

**Q.** And the Cmax (male, 50 mg/mL/occasion, male dogs, 50 mg/mL, 12 daily doses, Week 13, read-out: Cmax)?
**A.** The Cmax was 26.8 ng/mL.
